From patent US9107964B2, “Radioactive fluorine-labeled compound” (NIHON MEDI-PHYSICS CO., LTD., priority 2011, dated 2015)
“Also recorded” adds a separate entry of the source.

Experiments:
Assay type in all cases: in vivo, mouse (Balb/c nu/nu)
[1] = system: EMT6 tumor-bearing model mice; test: Biodistribution in tumor and organs of tumor-bearing mouse (Example 14); conditions: for Blood / Gall bladder / Heart / Kidney / Large intestine / Liver / Lung / Muscle / Small intestine / Stomach / T/B (tumor/blood ratio) / T/M (tumor/muscle ratio) / Tumor / Urine: mean; for Blood clearance and urinary excretion: compared with [^18F]FMISO, 60 and 120 minutes after administration
Description: The biodistribution of compounds 1 to 3 and [^18F]FMISO in a tumor and each of the organs of a tumor-bearing mouse was measured.
Tumor-bearing model mice used in this experiment were the same as those prepared in Example 10, and 3 or 4 cases that had attained a tumor volume of 200 to 400 mm^3 were selected from each group. The tumor-bearing model mouse was placed under isoflurane anesthesia, pimonidazole that is a hypoxic marker, was administered via a tail vein, and at 10 minutes thereafter, the respective labeled compound was administered. The tumor-bearing model mouse was sacrificed at 60 minutes and 120 minutes after administration. All of the tumor-bearing model mice were sacrificed by blood-letting from the abdominal aorta or by cardiocentesis, and dissection was carried out immediately thereafter. Other than the tumor, the blood, heart, lung, stomach, liver, gallbladder, kidney, small intestine and large intestine, muscle, and urine were sampled, and the other tissues were defined as the remaining whole body. After the weight of each tissue sampled was measured, the amount of radioactivity of the tissue was measured using a gamma counter, and the biodistribution of each of the labeled compounds was compared by converting it into % ID/g (% injection dose/g organ) of each tissue.
In order to examine a hypoxic state within the tumor, immunohistochemical staining of the sample tumor was carried out so as to ascertain whether or not the interior of the tumor was hypoxic. The sampled tumor was fixed using a 20% formalin buffer, and a paraffin block was prepared using an automatic paraffin-embedding apparatus (model: VIP-5-Jr-J0, Sakura Finetek). A slice (thickness: 3 μm) was prepared by means of a microtome (model: Tissue-Tek Feather Trustome, Sakura Finetek). Immunohistochemical staining was carried out by the same method as in Example 12.

[2] = system: hypoxic region of EMT6 tumor (pimonidazole-positive area); test: Correlation between autoradiographic signal intensity (PSL value) and pimonidazole-positive area (Example 13); conditions: tumor tissue sections after PET imaging
Description: In order to evaluate whether or not the compound related to the present invention can quantitatively visualize a hypoxic region of a tumor, the following experiment was carried out using compounds 1 to 3 and [^18F]FMISO.
Using a microscope system (model: BZ-9000, Keyence Corporation) a high magnification image of a pimonidazole-positive site was acquired using the entire image of a pathology image obtained by immunohistochemical staining in the Example 12 and a 10× objective lens. The high magnification image was formed with respect to a randomly selected image region. At the same time the image acquisition site was recorded as a navigation image by use of the navigation function of the microscope system. The acquired high magnification image was subjected to image processing, and a pimonidazole-positive area present in the high magnification image was determined.
The autoradiographic image and the stained image of each labeled compound used were those acquired in the Example 12. The resolution of the navigation image was made to match the resolution of the autoradiographic image, and the geometrical positions of two images were aligned using image analysis software.
In the autoradiographic image, an ROI was set for the site that coincided with the high magnification image acquisition site, and the PSL value (Photo-Stimulated Luminescence value) of the ROI was determined. Furthermore, an ROI was set for a site of the same image that contained no sample, and the PSL value thereof was defined as the background. The PSL value of the background was subtracted from the PSL value of the high magnification image acquisition site to obtain the net PSL value. The hypoxic marker pimonidazole-positive area was plotted on the abscissa and the PSL value in the autoradiographic image on the ordinate, and the correlation factor was determined. This series of operations was carried out for each of the labeled compounds.

[3] = system: mouse-derived breast cancer cell line (EMT6) tumor-bearing model mice; test: PET imaging of tumor-bearing model mice (incorporation into tumor cells, Example 10); conditions: 60 minutes after administration; for Physiological accumulation in the liver compared with [^18F]FMISO: coronal tomographic PET image; for Excretion route: from coronal tomographic PET image
Description: Accumulation of compound 1, compound 2, and compound 3 in tumor cells in vivo was studied as follows using a mouse-derived breast cancer cell line (EMT6).
Preparation of tumor-bearing model mice: the animals used were six-week-old female Balb/c nu/nu mice (obtained from Japan SLC). Using these animals, a Matrigel suspension (cell count 2.5×10^6 cells/0.05 mL) of EMT6, which is a mouse-derived breast cancer cell line (obtained from ATCC), was subcutaneously implanted in a site from the right rib to the right shoulder. It was confirmed on the third day after implantation that the tumor cells were fixed, and the tumor volume attained 200 to 400 mm^3 9 to 11 days after implantation.

[4] = 60 minutes after administration
[5] = 120 minutes after administration

SMILES	Blood [1, 4] [% ID/g]	Gall bladder [1, 4] [% ID/g]	Heart [1, 4] [% ID/g]	Kidney [1, 4] [% ID/g]	Large intestine [1, 4] [% ID/g]	Liver [1, 4] [% ID/g]	Lung [1, 4] [% ID/g]	Muscle [1, 4] [% ID/g]	Small intestine [1, 4] [% ID/g]	Stomach [1, 4] [% ID/g]	T/B (tumor/blood ratio) [1, 4]	T/M (tumor/muscle ratio) [1, 4]	Tumor [1, 4] [% ID/g]	Urine [1, 4] [% ID]	Blood [1, 5] [% ID/g]	Gall bladder [1, 5] [% ID/g]	Heart [1, 5] [% ID/g]	Kidney [1, 5] [% ID/g]	Large intestine [1, 5] [% ID/g]	Liver [1, 5] [% ID/g]	further results
O=[N+]([O-])c1nccn1CC(CO)(CO)C[18F] [Compound 1, 1-(2,2-Dihydroxymethyl-3-[^18F]fluoropropyl)-2-nitroimidazole]	1.70	26.34	2.35	4.23	3.71	3.34	1.96	1.71	3.72	1.53	1.42	1.39	2.38	62.13	0.75	8.21	1.90	2.91	2.37	4.31	Lung [1, 5]: 0.89 % ID/g; Muscle [1, 5]: 0.84 % ID/g; Small intestine [1, 5]: 2.78 % ID/g; Stomach [1, 5]: 0.88 % ID/g; T/B (tumor/blood ratio) [1, 5]: 2.47; T/M (tumor/muscle ratio) [1, 5]: 2.03; Tumor [1, 5]: 1.65 % ID/g; Urine [1, 5]: 77.76 % ID; Blood clearance and urinary excretion [1]: rapid blood clearance and urinary excretion compared with [^18F]FMISO; Correlation coefficient (pimonidazole-positive area vs PSL value in autoradiographic image) [2]: 0.85; Sites of accumulation on coronal tomographic image [3]: intense accumulation of compound 1 in the bladder, and accumulation thereof in the gallbladder and the intestinal tract; Tumor-specific accumulation on axial tomographic image [3]: tumor-specific accumulation separated from normal tissue such as muscle; Physiological accumulation in the liver compared with [^18F]FMISO [3]: low physiological accumulation in the liver; Excretion route [3]: excreted via the kidney and urinary tract excretion and hepatobiliary excretion systems
O=[N+]([O-])c1nc(CO)cn1CC(CO)(CO)C[18F] [Compound 2, 1-(2,2-Dihydroxymethyl-3-[^18F]fluoropropyl)-4-hydroxymethyl-2-nitroimidazole]	0.60	7.54	1.32	1.86	0.96	1.14	0.89	1.25	2.35	0.48	2.11	0.91	1.13	80.42	0.25	7.33	0.74	0.82	0.88	0.54	Lung [1, 5]: 0.34 % ID/g; Muscle [1, 5]: 0.47 % ID/g; Small intestine [1, 5]: 1.63 % ID/g; Stomach [1, 5]: 0.25 % ID/g; T/B (tumor/blood ratio) [1, 5]: 3.18; T/M (tumor/muscle ratio) [1, 5]: 1.68; Tumor [1, 5]: 0.78 % ID/g; Urine [1, 5]: 90.92 % ID; Blood clearance and urinary excretion [1]: even more rapid; Correlation coefficient (pimonidazole-positive area vs PSL value in autoradiographic image) [2]: 0.80; Sites of accumulation on coronal tomographic image [3]: intense accumulation of compound 2 and compound 3 was found in the bladder and accumulation thereof was found in the intestinal tract; Tumor-specific accumulation on axial tomographic image [3]: tumor-specific accumulation; Physiological accumulation in the liver compared with [^18F]FMISO [3]: low physiological accumulation in the liver; Excretion route [3]: excreted mainly via the kidney and urinary tract system
O=[N+]([O-])c1nccn1CCC(CO)(CO)C[18F] [Compound 3, 1-(3,3-Dihydroxymethyl-4-[^18F]fluorobutyl)-2-nitroimidazole]	2.81	16.71	3.46	9.95	5.40	4.46	2.92	2.66	4.68	1.99	0.86	0.87	2.05	45.80	1.14	15.45	1.82	9.20	6.89	2.13	Lung [1, 5]: 1.38 % ID/g; Muscle [1, 5]: 1.44 % ID/g; Small intestine [1, 5]: 3.66 % ID/g; Stomach [1, 5]: 1.26 % ID/g; T/B (tumor/blood ratio) [1, 5]: 2.11; T/M (tumor/muscle ratio) [1, 5]: 1.62; Tumor [1, 5]: 1.93 % ID/g; Urine [1, 5]: 68.78 % ID; Blood clearance and urinary excretion [1]: rapid blood clearance and urinary excretion compared with [^18F]FMISO; Correlation coefficient (pimonidazole-positive area vs PSL value in autoradiographic image) [2]: 0.61; Sites of accumulation on coronal tomographic image [3]: intense accumulation of compound 2 and compound 3 was found in the bladder and accumulation thereof was found in the intestinal tract; also recorded: accumulation of compound 3 in the gallbladder; Tumor-specific accumulation on axial tomographic image [3]: tumor-specific accumulation; Physiological accumulation in the liver compared with [^18F]FMISO [3]: low physiological accumulation in the liver; Excretion route [3]: excreted via the kidney and urinary tract system and the hepatobiliary system
